Several values for one entry are separate records, joined by “and”; a condition that tells them apart may be missing. Equal values may be shown once.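 These data come from cells grown in 96-well plates and exposed to compound for 48 hours at five concentrations. GI50 = concentration required for 50% inhibition of growth. TGI: total growth inhibition.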
Tests used:
Test in all cases: NCI tumour cell line growth inhibition, 48 h
[1] = test system: KM20L2 colon
[2] = test system: LXFL 529 NSCLC
[3] = test system: M19-MEL melanoma
[4] = test system: SNB-78 CNS
[5] = test system: XF 498 CNS
[6] = test system: HOP-18 NSCLC
[7] = test system: DMS 273 small cell lung
[8] = test system: P388/ADR leukemia
[9] = test system: SN12K1 renal
[10] = test system: P388 leukemia

Compound	TGI [1]	TGI [2] [nM]	TGI [3]	TGI [4]	TGI [5]	TGI [6] [nM]	TGI [7]	GI50 [1] [nM]	GI50 [8] [nM]	TGI [8]	GI50 [3] [nM]	GI50 [4] [nM]	GI50 [5] [nM]	GI50 [9]	TGI [9]	GI50 [10] [nM]	TGI [10]	GI50 [7] [nM]
C=C(CN(C)C)C(=O)c1ccccc1OC	50800 nM	11500	32400 nM	62800 nM	32300 nM	20200	34000 nM											
CC[C@@]1(O)CC(OC2CC(N3CCOCC3)C(O)C(C)O2)c2c(O)c3c(c(O)c2[C@H]1O)C(=O)c1cccc(O)c1C3=O (stereo partly drawn)	3840 nM and 1860 nM		981 nM and 2140 nM	2830 nM and 24300 nM	278 nM and 362 nM		1100 nM and 393 nM	102	4.4	2940 nM and 770 nM	71.6	640	34.1	15.3 nM and 10.2 nM	403 nM and 297 nM	0.000179	1080 nM and 799 nM	18

— PubChem BioAssay (NCI)
